Where a name gives a salt, the structure may show the parent alone.
Each molecule was assayed on KMS.12.BM cells (assay: KMS.12.BM cell viability assay). Conditions: 72 h; KMS.12.BM human myeloma cells, 3 days, Cell Titer-GLO ATP quantitation; read-out: KMS cellular IC50.
Assay type: cell-based
Description: KMS.12.BM cell line (human myeloma) was purchased from JCRB (Osaka, Japan) and maintained in RPMI with 10% FBS culture medium. To measure the cytotoxic activity of the compounds through ATP quantitation, the KMS.12.BM cells are plated in the RPMI culture medium at 5000 cells/well/per 100 μL into a 96-well polystyrene clear black tissue culture plate (Greiner-bio-one through VWR, NJ), in the presence or absence of a concentration range of test compounds. After 3 days, […] Cell Titer-GLO Luminescent (Promega, Madison, Wis.) cell culture agent is added to each well for 10 minutes at room temperature to stabilize the luminescent signal. This determines the number of viable cells in culture based on quantitation of the ATP present, which signals the presence of metabolically active cells. Luminescence is measured with the Top Count 384 (Packard Bioscience through Perkin Elmer, Boston, Mass.).
IC50 data for the Examples is presented in Table 4 as determined by Assay B1.

**Q.** With `Cc1nnc2ccc3c(cc(-c4ccn(CC#N)n4)n3Cc3ccccc3)n12` [Example 65, [3-(6-benzyl-1-methyl-6H-pyrrolo[2,3-e][1,2,4]triazolo[4,3-a]pyridin-7-yl)-1H-pyrazol-1-yl]acetonitrile] as the molecule, how does the IC50 read?
**A.** ≤ 1000 nM

**Q.** How did the IC50 turn out when `Cc1nnc2ccc3c(cc(-c4ccn(C5CN(CCO)C5)n4)n3Cc3cccc(Cl)c3)n12` [Example 179, 2-(3-{3-[6-(3-Chlorobenzyl)-1-methyl-6H-pyrrolo[2,3-e][1,2,4]triazolo[4,3-a]pyridin-7-yl]-1H-pyrazol-1-yl}azetidin-1-yl)ethanol bis(trifluoroacetate) salt] was run?
**A.** ≤ 1000 nM

**Q.** With `CCCNC(=O)c1cc2c(ccc3nnc(C)n32)n1Cc1ccccc1` [Example 83, 6-benzyl-1-methyl-N-propyl-6H-pyrrolo[2,3-e][1,2,4]triazolo[4,3-a]pyridine-7-carboxamide] as the molecule, how does the IC50 read?
**A.** ≤ 1000 nM

**Q.** For `Cc1cc2c(cc(NC3CCN(C)C3)c3nnc(C)n32)n1Cc1ccccc1` (racemic) [Example 145, 6-benzyl-1,7-dimethyl-N-(1-methylpyrrolidin-3-yl)-6H-pyrrolo[2,3-e][1,2,4]triazolo[4,3-a]pyridin-4-amine bis(trifluoroacetate) salt (racemic)], which IC50 is on record?
**A.** ≤ 1000 nM

**Q.** For `Cc1cc2c(cc(NC3CN(C(=O)OC(C)(C)C)C3)c3nnc(C)n32)n1Cc1ccccc1` [Example 244, tert-Butyl 3-(6-benzyl-1,7-dimethyl-6H-pyrrolo[2,3-e][1,2,4]triazolo[4,3-a]pyridin-4-ylamino)azetidine-1-carboxylate], which IC50 is on record?
**A.** ≤ 1000 nM

**Q.** How did the IC50 turn out when `Cc1nnc2ccc3c(cc(C(N)=O)n3Cc3ccccc3)n12` [Example 58, 6-benzyl-1-methyl-6H-pyrrolo[2,3-e][1,2,4]triazolo[4,3-a]pyridine-7-carboxamide] was run?
**A.** ≤ 1000 nM

**Q.** With `Cc1nnc2ccc3c(cc(-c4ccn(C5(CC#N)CNC5)n4)n3Cc3ccccc3)n12` [Example 90, {3-[3-(6-benzyl-1-methyl-6H-pyrrolo[2,3-e][1,2,4]triazolo[4,3-a]pyridin-7-yl)-1H-pyrazol-1-yl]azetidin-3-yl}acetonitrile] as the molecule, how does the IC50 read?
**A.** ≤ 1000 nM

**Q.** For `Cc1cc2c(cc(NC3CCN(S(C)(=O)=O)CC3)c3nnc(C)n32)n1Cc1ccccc1` [Example 211, 6-Benzyl-1,7-dimethyl-N-[1-(methylsulfonyl)piperidin-4-yl]-6H-pyrrolo[2,3-e][1,2,4]triazolo[4,3-a]pyridin-4-amine], which IC50 is on record?
**A.** ≤ 1000 nM

**Q.** For `Cc1cc2c(cc(N[C@H]3CC[C@@H](N)CC3)c3nnc(C)n32)n1Cc1ccccc1` [Example 218, cis-N-(6-Benzyl-1,7-dimethyl-6H-pyrrolo[2,3-e][1,2,4]triazolo[4,3-a]pyridin-4-yl)cyclohexane-1,4-diamine], which IC50 is on record?
**A.** 1000 to 10000 nM

**Q.** For `CNC(=O)Nc1cc2c(cc(C)n2Cc2ccccc2)n2c(C)nnc12` [Example 229, 1-(6-Benzyl-1,7-dimethyl-6H-pyrrolo[2,3-e][1,2,4]triazolo[4,3-a]pyridin-4-yl)-3-methylurea], which IC50 is on record?
**A.** ≤ 1000 nM

**Q.** How did the IC50 turn out when `Cc1nnc2ccc3c(cc(-c4ncco4)n3Cc3cc(Cl)cc(CN4CC(O)C4)c3)n12` [Example 198, 1-(3-Chloro-5-{[1-methyl-7-(1,3-oxazol-2-yl)-6H-pyrrolo[2,3-e][1,2,4]triazolo[4,3-a]pyridin-6-yl]methyl}benzyl)azetidin-3-ol bis(trifluoroacetate) salt] was run?
**A.** ≤ 1000 nM

**Q.** `Cc1cc2c(cc(NCCO)c3nnc(C)n32)n1Cc1ccccc1` [Example 210, 2-[(6-Benzyl-1,7-dimethyl-6H-pyrrolo[2,3-e][1,2,4]triazolo[4,3-a]pyridin-4-yl)amino]ethanol] was tested. Which IC50 did it give?
**A.** 1000 to 10000 nM

**Q.** With `Cc1cc2c(ccc3nnc(C)n32)n1Cc1cccc(CN2CC(O)C2)c1` [Example 27, 1-(3-((1,7-dimethyl-6H-pyrrolo[2,3-e][1,2,4]triazolo[4,3-a]pyridin-6-yl)methyl)benzyl)azetidin-3-ol bis-trifluoroacetate salt] as the molecule, how does the IC50 read?
**A.** ≤ 1000 nM

**Q.** For `Cc1nnc2ccc3c(cc(-c4ccn(C)n4)n3Cc3cc(Cl)cc(CN4CCCC4)c3)n12` [Example 190, 6-[3-Chloro-5-(pyrrolidin-1-ylmethyl)benzyl]-1-methyl-7-(1-methyl-1H-pyrazol-3-yl)-6H-pyrrolo[2,3-e][1,2,4]triazolo[4,3-a]pyridine bis(trifluoroacetate) salt], which IC50 is on record?
**A.** ≤ 1000 nM

**Q.** With `Cc1cc2c(cc(NC(C)C)c3nnc(C)n32)n1Cc1ccccc1` [Example 263, 6-Benzyl-N-isopropyl-1,7-dimethyl-6H-pyrrolo[2,3-e][1,2,4]triazolo[4,3-a]pyridin-4-amine] as the molecule, how does the IC50 read?
**A.** 1000 to 10000 nM

**Q.** With `Cc1nnc2ccc3c(cc(-c4cncs4)n3Cc3ccccc3)n12` [Example 69, 6-benzyl-1-methyl-7-(1,3-thiazol-5-yl)-6H-pyrrolo[2,3-e][1,2,4]triazolo[4,3-a]pyridine] as the molecule, how does the IC50 read?
**A.** ≤ 1000 nM

**Q.** `CCNC(=O)c1cc2c(ccc3nnc(C)n32)n1Cc1cccc(C(F)(F)F)c1` [Example 137, N-Ethyl-1-methyl-6-[3-(trifluoromethyl)benzyl]-6H-pyrrolo[2,3-e][1,2,4]triazolo[4,3-a]pyridine-7-carboxamide trifluoroacetate salt] was tested. Which IC50 did it give?
**A.** ≤ 1000 nM

**Q.** Which IC50 does the source give for `CCCC(=O)Nc1cc2c(cc(C)n2Cc2ccccc2)n2c(C)nnc12` [Example 267, N-(6-Benzyl-1,7-dimethyl-6H-pyrrolo[2,3-e][1,2,4]triazolo[4,3-a]pyridin-4-yl)butyramide] here?
**A.** ≤ 1000 nM

**Q.** For `Cc1nnc2ccc3c(cc(-c4ccn(CCC(=O)NC(C)(C)C)n4)n3Cc3cccc(Cl)c3)n12` [Example 176, N-(tert-Butyl)-3-{3-[6-(3-chlorobenzyl)-1-methyl-6H-pyrrolo[2,3-e][1,2,4]triazolo[4,3-a]pyridin-7-yl]-1H-pyrazol-1-yl}propanamide trifluoroacetate salt], which IC50 is on record?
**A.** ≤ 1000 nM

**Q.** How did the IC50 turn out when `CNC(=O)c1cc2c(ccc3nnc(C)n32)n1Cc1cc(Cl)cc(CN2CCC2)c1` [Example 131, 6-[3-(Azetidin-1-ylmethyl)-5-chlorobenzyl]-N,1-dimethyl-6H-pyrrolo[2,3-e][1,2,4]triazolo[4,3-a]pyridine-7-carboxamide bis(trifluoroacetate) salt] was run?
**A.** ≤ 1000 nM

**Q.** `Cc1cc2c(ccc3nnc(C)n32)n1Cc1ccc(CO)cc1` [Example 49, {4-[(1,7-dimethyl-6H-pyrrolo[2,3-e][1,2,4]triazolo[4,3-a]pyridin-6-yl)methyl]phenyl}methanol] was tested. Which IC50 did it give?
**A.** ≤ 1000 nM

**Q.** With `Cc1nnc2ccc3c(cc(-c4cn(CCN5CCOCC5)cn4)n3Cc3ccccc3)n12` [Example 75, 6-benzyl-1-methyl-7-[1-(2-morpholin-4-ylethyl)-1H-imidazol-4-yl]-6H-pyrrolo[2,3-e][1,2,4]triazolo[4,3-a]pyridine] as the molecule, how does the IC50 read?
**A.** ≤ 1000 nM

**Q.** For `Cc1cc2c(ccc3nnc(C)n32)n1Cc1ccc(Cl)cc1` [Example 10, 6-(4-chlorobenzyl)-1,7-dimethyl-6H-pyrrolo[2,3-e][1,2,4]triazolo[4,3-a]pyridine], which IC50 is on record?
**A.** ≤ 1000 nM

**Q.** With `Cc1cc2c(ccc3nnc(C)n32)n1Cc1cccc(C(=O)NO)c1` [Example 31, 3-[(1,7-dimethyl-6H-pyrrolo[2,3-e][1,2,4]triazolo[4,3-a]pyridin-6-yl)methyl]-N-hydroxybenzamide trifluoroacetate salt] as the molecule, how does the IC50 read?
**A.** 1000 to 10000 nM

**Q.** How did the IC50 turn out when `Cc1cc2c(cc(NCCN)c3nnc(C)n32)n1Cc1ccccc1` [Example 258, N1-(6-benzyl-1,7-dimethyl-6H-pyrrolo[2,3-e][1,2,4]triazolo[4,3-a]pyridin-4-yl)ethane-1,2-diamine] was run?
**A.** ≤ 1000 nM

**Q.** How did the IC50 turn out when `Cc1nnc2ccc3c(cc(C#N)n3Cc3ccccc3)n12` [Example 227, 6-Benzyl-1-methyl-6H-pyrrolo[2,3-e][1,2,4]triazolo[4,3-a]pyridine-7-carbonitrile trifluoroacetate salt] was run?
**A.** ≤ 1000 nM

**Q.** For `CNC(=O)c1cc2c(ccc3nnc(C)n32)n1Cc1cccc(Cl)c1` [Example 99, 6-(3-chlorobenzyl)-N,1-dimethyl-6H-pyrrolo[2,3-e][1,2,4]triazolo[4,3-a]pyridine-7-carboxamide], which IC50 is on record?
**A.** ≤ 1000 nM

**Q.** With `Cc1nnc2ccc3c(cc(-c4cscn4)n3Cc3ccccc3)n12` [Example 66, 6-benzyl-1-methyl-7-(1,3-thiazol-4-yl)-6H-pyrrolo[2,3-e][1,2,4]triazolo[4,3-a]pyridine] as the molecule, how does the IC50 read?
**A.** ≤ 1000 nM

**Q.** For `Cc1nnc2ccc3c(cc(-c4ccccn4)n3Cc3ccccc3)n12` [Example 68, 6-benzyl-1-methyl-7-pyridin-2-yl-6H-pyrrolo[2,3-e][1,2,4]triazolo[4,3-a]pyridine], which IC50 is on record?
**A.** ≤ 1000 nM

**Q.** How did the IC50 turn out when `Cc1nnc2ccc3c(cc(-c4ccn(CCCO)n4)n3Cc3cccc(Cl)c3)n12` [Example 173, 3-{3-[6-(3-Chlorobenzyl)-1-methyl-6H-pyrrolo[2,3-e][1,2,4]triazolo[4,3-a]pyridin-7-yl]-1H-pyrazol-1-yl}propan-1-ol trifluoroacetate salt] was run?
**A.** ≤ 1000 nM

**Q.** With `Cc1nnc2ccc3c(cc(-c4ccn(CCC(N)=O)n4)n3Cc3ccccc3)n12` [Example 98, 3-[3-(6-benzyl-1-methyl-6H-pyrrolo[2,3-e][1,2,4]triazolo[4,3-a]pyridin-7-yl)-1H-pyrazol-1-yl]propanamide] as the molecule, how does the IC50 read?
**A.** ≤ 1000 nM

**Q.** With `Cc1cc2c(cc(Nc3cc[nH]n3)c3nnc(C)n32)n1Cc1ccccc1` [Example 200, 6-Benzyl-1,7-dimethyl-N-1H-pyrazol-3-yl-6H-pyrrolo[2,3-e][1,2,4]triazolo[4,3-a]pyridin-4-amine tris(trifluoroacetate) salt] as the molecule, how does the IC50 read?
**A.** ≤ 1000 nM

**Q.** How did the IC50 turn out when `Cc1cc2c(cc(N[C@@H]3CCNC3)c3nnc(C)n32)n1Cc1ccccc1` [Example 151, 6-benzyl-1,7-dimethyl-N-[(3R)-pyrrolidin-3-yl]-6H-pyrrolo[2,3-e][1,2,4]triazolo[4,3-a]pyridin-4-amine bis(trifluoroacetate) salt] was run?
**A.** ≤ 1000 nM

— patent publication US10442803B2, “Tricyclic heterocycles as bet protein inhibitors” (Incyte Corporation, priority 2013, dated 2019)
